{"source": "patent US12048768B2", "about": "“Gastro-resistant controlled release oral dosage forms” (Minerva Neurosciences, Inc., priority 2017, dated 2024)", "key": {"[1]": {"conditions": "as disclosed in U.S. Pat. No. 9,458,130; cited from earlier work"}, "[2]": {"conditions": "human, in vivo"}, "[3]": {"experiment": "Phase 2b study of MIN-101 in patients with schizophrenia (negative symptoms, cognitive function, CDSS)", "type": "in vivo, human", "protocol": "The oral dosage forms used in this Phase 2b study were the 32 mg MR tablet described in Example 1 below and an essentially identical 64 mg MR tablet.\nThus, in an aspect, administration of a gastro-resistant CR oral dosage form of the present disclosure to a patient with a diagnosis of schizophrenia is intended to improve cognitive function in the patient.\nA secondary outcome of the phase 2b study of MIN-101 discussed above was patients' performance on the Calgary Depression Scale for Schizophrenia (CDSS) ADDINGTON D, ADDINGTON J, MATICKA-TYNDALE E. ASSESSING DEPRESSION IN S CHIZOPHRENIA: THE CALGARY DEPRESSION SCALE. BRITISH JOURNAL OF PSYCHIATRY SUPPLEMENT 1993; (22):39-44. The CDSS has little overlap with positive and negative symptoms and has become the recommended scale to assess the severity of depression in patients with schizophrenia. In the phase 2b study, the severity of symptoms as measured by the CDSS was reduced following treatment with 32 or 64 mg of MIN-101 compared to placebo. […] Thus, since the effects of MIN-101 on negative symptoms and depression symptoms in schizophrenia patients were largely independent of each other, MIN-101 has the potential to alleviate one or more depression symptoms in patients who are not schizophrenic."}}, "data": [{"compound": "Cl.O.O.O=C(CN1CCC(CN2Cc3ccccc3C2=O)CC1)c1ccc(F)cc1", "note": "[MIN-101, 1H-Isoindol-1-one, 2-[[1-[2-(4-Fluorophenyl)-2-oxoethyl]-4-piperidinyl]methyl]-2,3-dihydro-, hydrochloride, hydrate (1:1:2)]", "values": [{"measurement": "QT prolongation in patients", "setting": "[1]", "result": "has been observed"}, {"measurement": "Plasma levels of BFB-520 in CYP2D6 poor metabolizers", "setting": "[2]", "result": "high plasma levels of BFB-520"}, {"measurement": "Cognitive function", "setting": "[3]; phase 2b study", "result": "improvement in cognitive function"}, {"measurement": "Negative symptoms in patients with schizophrenia", "setting": "[3]; phase 2b, 32 mg and 64 mg MR tablets", "result": "rapid, statistically significant and clinically meaningful reductions in negative symptoms"}, {"measurement": "Severity of depression symptoms as measured by the CDSS", "setting": "[3]; phase 2b, 32 or 64 mg compared to placebo", "result": "reduced"}]}]}
